± gives the expanded uncertainty stated by the source.
Key:
[1] = for mass density: 298.15 K, 101.33 kPa, Liquid, Pycnometric method
[2] = Molar enthalpy of transition or fusion; details: Crystal; DSC

| SMILES | mass density [1] | Molar enthalpy of transition or fusion [2] | Normal melting temperature ([1]; Crystal, DTA) |
| --- | --- | --- | --- |
| CO [methanol] | 785.9 ± 40 kg/m3 |  |  |
| C[C@]12CCC(=O)C=C1CC[C@@H]1[C@@H]2CC[C@]2(C)C(=O)CC[C@@H]12 [androst-4-ene-3,17-dione] |  | 25.7 ± 1.6 kJ/mol | 171.39 ± 0.7 °C |
| CC(C)O [propan-2-ol] | 782.7 ± 40 kg/m3 |  |  |
| CCO [ethanol] | 786.4 ± 40 kg/m3 |  |  |
| CCCCO [butan-1-ol] | 805.5 ± 40 kg/m3 |  |  |
